The values below are quoted from earlier work in US6455557B1 (Elan Pharmaceuticals, Inc., priority 2001, dated 2002).

Like-named read-outs stand apart in the source and are kept apart here.

Test in series [1]: not given
This is another data set of the same source.

In series [2] the test system is plasma proteins. To be noted: independent of concentration over the therapeutic range.
Test in series [3]: not given
This is another data set of the same source.

Where [4] appears, read: oral administration, tablet formulation.

Take `Clc1ccc2nsnc2c1NC1=NCCN1` [tizanidine, 5-chloro-4-(2-imidazolin-2-ylamino)-2,1,3-benzothiadiazole]: where the note is “patients”, the “Muscle strength, as assessed by objective means” value is “not to be adversely affected”; the “Spasm frequency and clonus” value is recorded as “reduced”; the “Subjective muscle weakness compared with baclofen or diazepam recipients” value was “reported less often”. In addition, the “Time of maximum anti-spastic effects after administration” value (some studies) is not above 2 h. Moreover, in series [1] (multiple dose, controlled clinical studies), the “Sedation cases rated as severe” value is given as 10%. Also, in series [1] (multiple dose, controlled clinical studies, any dose), the “Patients reporting sedation as an adverse event” value is given as 48%. The “Patients continuing to report drowsiness 6 hours following dosing” value in series [1] (single dose of 8 mg) is on record as 13%. Moreover, in series [1] (single dose of 16 mg), the “Patients continuing to report drowsiness 6 hours following dosing” value is given as 51%. Besides, in series [1] (single dose study), the “Onset of drowsiness following dosing” value was 30 min and the “Peak of drowsiness following dosing” value is 1.5 h. Further, in series [1] (single dose study, 8 mg), the “Patients reporting that they were drowsy during the 6 hour study” value is 76%. In addition, in series [1] (single dose study, 16 mg), the “Patients reporting that they were drowsy during the 6 hour study” value is on record as 92%. Moreover, the “Bound to plasma proteins” value in series [2] is reported as “approximately 30%”. The “Fraction of an administered dose metabolized” value in series [3] (in vivo) was “approximately 95%”. For the same compound, the “Mean steady state volume of distribution” value in series [3] (intravenous administration, healthy adult volunteers) is 2.4 L/kg. The Absolute oral bioavailability result in series [3] (oral) is “approximately 40%”. Also, in series [3] (setting [4]), the Half-life entry was “approximately 2.5 hours” and the “Time of peak plasma concentrations after dosing” value is 1.5 h. In addition, the “Dose linearity of pharmacokinetics” value in series [3] (over a dose of 1 to 20 mg) was “linear pharmacokinetics”. Moreover, in series [3] (tablet formulation, with food), the “Extent of tizanidine absorption with food” value is on record as “not affected”, the “Increase of Cmax by food” value was “approximately one-third” and the “Shortening of time to peak concentration by food” value was “approximately 40 minutes”.

In the case of `Clc1cccc(Cl)c1N=C1NCCN1` [clonidine], the “Efficacy in treating spastic conditions” value (human, in vivo) is “ineffective”.
